Our source for the IC50 and Ki values is ChEMBL document CHEMBL1137927, “Initial structure-activity relationships of lysophosphatidic acid receptor antagonists: discovery of a high-affinity LPA1/LPA3 receptor antagonist” (Bioorg Med Chem Lett, 2004).

Assay [1] addresses Lysophosphatidic acid receptor 1 (Homo sapiens, UniProt Q92633). Kind of assay: In vitro ability to antagonize LPA-evoked [35S]GTP-gamma-S binding to lysophosphatidic acid receptor 1 in HEK293T cell lines. Type of assay: functional, cell-based, HEK-293T.
The target of assay [2] is T1, Lysophosphatidic acid receptor 3 (Homo sapiens, UniProt Q9UBY5).
T1 sequence (Q9UBY5 whole entry): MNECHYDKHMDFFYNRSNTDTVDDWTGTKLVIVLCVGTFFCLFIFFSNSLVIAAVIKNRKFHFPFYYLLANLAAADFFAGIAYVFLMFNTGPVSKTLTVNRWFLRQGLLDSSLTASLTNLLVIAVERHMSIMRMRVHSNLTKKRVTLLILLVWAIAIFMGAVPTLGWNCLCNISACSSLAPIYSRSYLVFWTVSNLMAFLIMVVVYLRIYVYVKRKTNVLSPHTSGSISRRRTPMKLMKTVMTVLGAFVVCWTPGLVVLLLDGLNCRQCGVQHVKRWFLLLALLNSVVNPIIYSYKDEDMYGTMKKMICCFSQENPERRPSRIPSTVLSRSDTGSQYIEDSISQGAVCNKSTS
Kind of assay: In vitro antagonism of LPA-evoked [35S]GTP-gamma-S binding to lysophosphatidic acid receptor 3 in HEK293T cell lines. Type of assay: functional, cell-based, HEK-293T. In general terms: GTPγS is a poorly hydrolysed GTP analogue; its binding reports G protein activation.

Lysophosphatidic acid receptor 1, sequence (Q92633 whole entry): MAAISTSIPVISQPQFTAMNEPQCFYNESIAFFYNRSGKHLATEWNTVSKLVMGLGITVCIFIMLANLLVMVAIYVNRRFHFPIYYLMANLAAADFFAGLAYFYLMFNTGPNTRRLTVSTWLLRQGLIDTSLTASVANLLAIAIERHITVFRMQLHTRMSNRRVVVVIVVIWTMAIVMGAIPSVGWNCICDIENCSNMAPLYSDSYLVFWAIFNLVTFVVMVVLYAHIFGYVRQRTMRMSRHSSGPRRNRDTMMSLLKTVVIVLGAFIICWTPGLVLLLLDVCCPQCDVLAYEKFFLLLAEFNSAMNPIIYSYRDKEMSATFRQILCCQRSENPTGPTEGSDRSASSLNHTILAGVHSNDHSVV

For `CCCCCCCC/C=C\CCCCCCCC(=O)N[C@@H](COP(=O)(O)O)Cc1ccc(OC(=O)c2cc(OC)c(OC)c(OC)c2)cc1`, the results for the IC50 in assay [1] and in assay [2] were over 10 µM and 0.427 µM, respectively.

Take `CCCCCCCCCCCCCCCCCC(=O)N[C@@H](COP(=O)(O)O)Cc1ccc(OC2O[C@H](CO)[C@@H](O)[C@H](O)[C@H]2O)cc1` (stereo partly drawn): the half-maximal inhibitory concentration (IC50) in assay [1] and in assay [2] was over 10 µM each time.

In the case of `CCCCCCCC/C=C\CCCCCCCC(=O)N[C@@H](COP(=O)(O)O)Cc1ccc(OCC2CCCCC2)cc1`, the IC50 (in general, the concentration at which inhibition is half-maximal) in assay [1] is over 10 µM; in assay [2] it was 4.03 µM.

`CCCCCCCC/C=C\CCCCCCCC(=O)NC(COP(=O)(O)O)Cc1ccc(OCc2ccccc2)cc1` (stereo not drawn): in assay [1], the IC50 came to 5.21 µM and the Ki – broadly, a measure of affinity in units of concentration, obtained from inhibition or displacement – turned out to be 0.137 µM. In assay [2], this compound yielded an IC50 of 6.45 µM.

Take `CCCCCCCC/C=C\CCCCCCCC(=O)N[C@H](COP(=O)(O)O)Cc1ccc(OCc2cccc(OC)c2)cc1`: the IC50 in assay [1] came out at 5.66 µM; in assay [2] it was 0.642 µM. This compound came in with a Ki in assay [1] of 0.642 µM.

Regarding `CCCCCCCC/C=C\CCCCCCCC(=O)N[C@H](COP(=O)(O)O)Cc1ccc(OCc2ccccn2)cc1`, in assay [1], the IC50 is 0.604 µM and the affinity, expressed as Ki, was 0.156 µM. The compound also registered an IC50 in assay [2] of 0.94 µM.

For `CCCCCCCC/C=C\CCCCCCCC(=O)N[C@H](COP(=O)(O)O)Cc1ccc(OC(=O)c2ccc(CCCCC)cc2)cc1`, the IC50 in assay [1] and in assay [2] was over 10 µM in each case.

Regarding `CCCCCCCC(=O)NC(COP(=O)(O)O)Cc1ccc(OCc2ccccc2)cc1` (stereo not drawn), the figures for the IC50 in assay [1] and in assay [2] were 7.97 µM and over 10 µM, respectively.

With `C=CCOc1ccc(C[C@@H](COP(=O)(O)O)NC(=O)CCCCCCC/C=C\CCCCCCCC)cc1`, the IC50 in assay [1] and in assay [2] was over 10 µM throughout.

In assay [1], `CCCCCCCC/C=C\CCCCCCCC(=O)N[C@@H](COP(=O)(O)O)Cc1ccc(OCc2ccccn2)cc1` came in with an IC50 of 0.109 µM and a Ki of 0.018 µM. Also, in assay [2], the IC50 was 0.175 µM.

With `CCCCCCCC/C=C\CCCCCCCC(=O)N[C@@H](COP(=O)(O)O)Cc1ccc(OCc2ccccc2)cc1`, the results for the IC50 in assay [1] and in assay [2] were 2.49 µM and over 10 µM, respectively.

With `CCCCCCCC/C=C\CCCCCCCC(=O)N[C@H](COP(=O)(O)O)Cc1ccc(OCc2ccccc2)cc1`, the IC50 in assay [1] and in assay [2] was over 10 µM throughout.

For `CCCCCCCC/C=C\CCCCCCCC(=O)N[C@H](COP(=O)(O)O)Cc1ccc(OC(=O)c2ccc(N)cc2)cc1`, the IC50 in assay [1] and in assay [2] was over 10 µM in each case.

In assay [1], `CCCCCCCC/C=C\CCCCCCCC(=O)N[C@@H](COP(=O)(O)O)Cc1ccc(OCc2cccc(OC)c2)cc1` displayed an IC50 of 1.07 µM and a Ki of 0.034 µM. This compound registered an IC50 in assay [2] of 0.0356 µM.

With `CCCCCCCC/C=C\CCCCCCCC(=O)N[C@H](COP(=O)(O)O)Cc1ccc(OCCC(C)C)cc1`, the IC50 in assay [1] was over 10 µM; in assay [2], 5.92 µM.

For the compound `CCCCCCCC/C=C\CCCCCCCC(=O)N[C@@H](COP(=O)(O)O)Cc1ccc(OCCC(C)C)cc1`, the values for the IC50 in assay [1] and in assay [2] were over 10 µM and 0.351 µM, respectively.

Turning to `C#CCOc1ccc(C[C@@H](COP(=O)(O)O)NC(=O)CCCCCCC/C=C\CCCCCCCC)cc1`, the half-maximal inhibitory concentration (IC50) in assay [1] and in assay [2] was over 10 µM in each case.

In the case of `CCCCCCCC/C=C\CCCCCCCC(=O)N[C@@H](COP(=O)(O)O)Cc1ccc(OC)cc1`, the IC50 in assay [1] and in assay [2] was over 10 µM throughout.

As for `CCCCCCCC/C=C\CCCCCCCC(=O)N[C@@H](COP(=O)(O)O)Cc1ccc(OC2Cc3ccccc3C2)cc1`, the IC50 was determined as 2.93 µM in assay [1] and 2.31 µM in assay [2]. Moreover, the Ki in assay [1] came to 0.134 µM.

For `CCCCCCCCCCCCCCCC(=O)NC(COP(=O)(O)O)Cc1ccc(OCc2ccccc2)cc1` (stereo not drawn), the IC50 was over 10 µM in assay [1] and 6.84 µM in assay [2].

Turning to `CCCCCCCC/C=C\CCCCCCCC(=O)N[C@H](COP(=O)(O)O)Cc1ccc(OCC)cc1`, the IC50 is over 10 µM in assay [1] and 6.93 µM in assay [2].

Regarding `C#CCCCCOc1ccc(C[C@H](COP(=O)(O)O)NC(=O)CCCCCCC/C=C\CCCCCCCC)cc1`, the figures for the IC50 in assay [1] and in assay [2] were over 10 µM and 3.28 µM, respectively.

For the compound `CCCCCCCCCCCCCC(=O)NC(COP(=O)(O)O)Cc1ccc(OCc2ccccc2)cc1` (stereo not drawn), the IC50 in assay [1] was 9.03 µM; in assay [2] it was over 10 µM.

Turning to `CCCCC/C=C\C/C=C\CCCCCCCC(=O)NC(COP(=O)(O)O)Cc1ccc(OCc2ccccc2)cc1` (stereo not drawn), the values for the IC50 in assay [1] and in assay [2] were 4.25 µM and over 10 µM, respectively.

For the compound `CCCCCCCCCCCCCCCC(=O)NC(COP(=O)(O)O)Cc1ccc(OCc2cccc(OC)c2)cc1` (stereo not drawn), the IC50 in assay [1] was over 10 µM; in assay [2] it was 7.22 µM.

With `CCCCCCCC/C=C\CCCCCCCC(=O)N[C@@H](COP(=O)(O)O)Cc1ccc(OCC)cc1`, the IC50 in assay [1] is over 10 µM; in assay [2], 6.41 µM.

Turning to `CCCCCCCC/C=C\CCCCCCCC(=O)N[C@@H](COP(=O)(O)O)Cc1ccc(Oc2cc3ccccc3[nH]2)cc1`, in assay [1], the IC50 is 7 µM and the Ki was found to be 0.073 µM. The compound also displayed an IC50 in assay [2] of 2.63 µM.

As for `CCCCCCCC/C=C\CCCCCCCC(=O)N[C@H](COP(=O)(O)O)Cc1ccc(Oc2cc3ccccc3[nH]2)cc1`, the values for the IC50 in assay [1] and in assay [2] were over 10 µM and 9.26 µM, respectively.
